The values that follow come from the supplement of paper PMC10307832.

Assay in all cases: relative viability (nuclei count vs DMSO), 5 days (fraction); higher = more cells survive
Compound in the experiment “Axitinib + Pemetrexed”: CNC(=O)c1ccccc1Sc1ccc2c(/C=C/c3ccccn3)n[nH]c2c1 [Axitinib] + Nc1nc2[nH]cc(CCc3ccc(C(=O)N[C@@H](CCC(=O)O)C(=O)O)cc3)c2c(=O)[nH]1 [Pemetrexed] (partner 0.2 µM)
The procedure, abridged:
(§1)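 Relative viability divides the nuclei count in treated wells by that in vehicle wells. Lung cancer cell lines were seeded in 1536-well plates, dosed by pin tool the next day, and fixed and stained after 5 days in one step with final 0.05% Triton X-100, 1% formaldehyde and 1 ug/ml Hoechst. Dosing was a single drug or a fixed anchor-drug dose plus five library-drug doses (not always all listed) in √10 steps, and values are medians of duplicate plates imaged at 4×.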

Compound in experiment [1]: CC1=CC=C(C=C1)C(=O)CN2C3=C(CCCC3)SC2=N [Pifithrin_alpha] + Cc1cc(Nc2cc(N3CCN(C)CC3)nc(Sc3ccc(NC(=O)C4CC4)cc3)n2)n[nH]1 [Tozasertib] (partner 0.1 µM)
The essentials:
as §1

Compound in the experiment “Axitinib + Trametinib”: CNC(=O)c1ccccc1Sc1ccc2c(/C=C/c3ccccn3)n[nH]c2c1 [Axitinib] + CC(=O)Nc1cccc(-n2c(=O)n(C3CC3)c(=O)c3c(Nc4ccc(I)cc4F)n(C)c(=O)c(C)c32)c1 [Trametinib] (partner 0.02 µM)
The procedure, abridged: as §1

Compound in the experiment “Bemcentinib + Dasatinib”: Nc1nc(Nc2ccc3c(c2)CC[C@@H](N2CCCC2)CC3)nn1-c1cc2c(nn1)-c1ccccc1CCC2 [Bemcentinib] + Cc1nc(Nc2ncc(C(=O)Nc3c(C)cccc3Cl)s2)cc(N2CCN(CCO)CC2)n1 [Dasatinib] (partner 0.075 µM)
The essentials: as §1

With NCI-H2342, the relative viability was 0.753 with Axitinib + Pemetrexed (first compound 0.005 µM); 0.792 with Axitinib + Pemetrexed (first compound 0.01581 µM); 0.707 with Axitinib + Pemetrexed (first compound 0.05 µM); 0.782 in the experiment with Axitinib + Pemetrexed (first compound 0.1581 µM); 0.669 with Axitinib + Pemetrexed (first compound 0.5 µM); 0.514 in experiment [1] (first compound 1 µM). Further, the relative viability in experiment [1] (first compound 3.162 µM) came out at 0.486; in experiment [1] (first compound 10 µM), 0.494; in experiment [1] (first compound 31.62 µM), 0.453; in experiment [1] (first compound 100 µM), 0.454; with Axitinib + Trametinib (first compound 0.005 µM), 0.789; with Axitinib + Trametinib (first compound 0.01581 µM), 0.751. Also, the relative viability in the experiment with Axitinib + Trametinib (first compound 0.05 µM) worked out at 0.703; with Axitinib + Trametinib (first compound 0.1581 µM) it was 0.881; with Axitinib + Trametinib (first compound 0.5 µM) it was 0.794; with Bemcentinib + Dasatinib (first compound 0.04 µM), 0.316; with Bemcentinib + Dasatinib (first compound 0.1265 µM), 0.318; with Bemcentinib + Dasatinib (first compound 0.4 µM), 0.313. The relative viability with Bemcentinib + Dasatinib (first compound 1.265 µM) turned out to be 0.264; with Bemcentinib + Dasatinib (first compound 4 µM) it was 0.308.
Consider NCI-H2347, for which the relative viability with Axitinib + Pemetrexed (first compound 0.005 µM) came to 0.443; with Axitinib + Pemetrexed (first compound 0.01581 µM) it was 0.39; in the experiment with Axitinib + Pemetrexed (first compound 0.05 µM), 0.441; with Axitinib + Pemetrexed (first compound 0.1581 µM), 0.458; with Axitinib + Pemetrexed (first compound 0.5 µM), 0.446; in experiment [1] (first compound 1 µM) it was 0.614. In addition, the relative viability in experiment [1] (first compound 3.162 µM) was 0.543; in experiment [1] (first compound 10 µM), 0.382; in experiment [1] (first compound 31.62 µM), 0.412; in experiment [1] (first compound 100 µM) it was 0.501; with Axitinib + Trametinib (first compound 0.005 µM), 0.257; in the experiment with Axitinib + Trametinib (first compound 0.01581 µM), 0.292. The relative viability in the experiment with Axitinib + Trametinib (first compound 0.05 µM) came out at 0.427; with Axitinib + Trametinib (first compound 0.1581 µM) it was 0.279; with Axitinib + Trametinib (first compound 0.5 µM), 0.318; with Bemcentinib + Dasatinib (first compound 0.04 µM) it was 0.322; with Bemcentinib + Dasatinib (first compound 0.1265 µM), 0.288; in the experiment with Bemcentinib + Dasatinib (first compound 0.4 µM), 0.327. Also, the relative viability with Bemcentinib + Dasatinib (first compound 1.265 µM) was determined as 0.269; with Bemcentinib + Dasatinib (first compound 4 µM), 0.308.
Take NCI-H2405: the relative viability is 0.93 with Axitinib + Pemetrexed (first compound 0.005 µM); 1.28 in the experiment with Axitinib + Pemetrexed (first compound 0.01581 µM); 1.22 with Axitinib + Pemetrexed (first compound 0.05 µM); 1.02 in the experiment with Axitinib + Pemetrexed (first compound 0.1581 µM); 1.15 with Axitinib + Pemetrexed (first compound 0.5 µM); 0.708 in experiment [1] (first compound 1 µM). The relative viability in experiment [1] (first compound 3.162 µM) was 0.697; in experiment [1] (first compound 10 µM), 0.573; in experiment [1] (first compound 31.62 µM) it was 0.573; in experiment [1] (first compound 100 µM), 0.627; with Axitinib + Trametinib (first compound 0.005 µM), 0.635; with Axitinib + Trametinib (first compound 0.01581 µM) it was 0.56. In addition, the relative viability with Axitinib + Trametinib (first compound 0.05 µM) is 0.513; with Axitinib + Trametinib (first compound 0.1581 µM) it was 0.594; in the experiment with Axitinib + Trametinib (first compound 0.5 µM), 0.576; with Bemcentinib + Dasatinib (first compound 0.04 µM), 0.194; in the experiment with Bemcentinib + Dasatinib (first compound 0.1265 µM), 0.22; with Bemcentinib + Dasatinib (first compound 0.4 µM), 0.21. Further, the relative viability with Bemcentinib + Dasatinib (first compound 1.265 µM) is 0.215; with Bemcentinib + Dasatinib (first compound 4 µM), 0.165.
On to NCI-H3122, for which the relative viability in the experiment with Axitinib + Pemetrexed (first compound 0.005 µM) worked out at 0.218; with Axitinib + Pemetrexed (first compound 0.01581 µM) it was 0.196; with Axitinib + Pemetrexed (first compound 0.05 µM), 0.219; with Axitinib + Pemetrexed (first compound 0.1581 µM), 0.193; with Axitinib + Pemetrexed (first compound 0.5 µM), 0.212; in experiment [1] (first compound 1 µM) it was 0.438. Also, the relative viability in experiment [1] (first compound 3.162 µM) was determined as 0.325; in experiment [1] (first compound 10 µM) it was 0.375; in experiment [1] (first compound 100 µM) it was 0.44; with Axitinib + Trametinib (first compound 0.005 µM), 0.217; with Axitinib + Trametinib (first compound 0.01581 µM) it was 0.212; with Axitinib + Trametinib (first compound 0.05 µM), 0.255. Besides, the relative viability came out at 0.217 in the experiment with Axitinib + Trametinib (first compound 0.1581 µM); 0.267 with Axitinib + Trametinib (first compound 0.5 µM); 0.751 in the experiment with Bemcentinib + Dasatinib (first compound 0.1265 µM); 0.768 with Bemcentinib + Dasatinib (first compound 0.4 µM); 0.888 in the experiment with Bemcentinib + Dasatinib (first compound 1.265 µM); 0.933 in the experiment with Bemcentinib + Dasatinib (first compound 4 µM).
Turning to PC-3 [JPC-3], the relative viability with Axitinib + Pemetrexed (first compound 0.005 µM) was found to be 0.963; in the experiment with Axitinib + Pemetrexed (first compound 0.05 µM) it was 1.32; with Axitinib + Pemetrexed (first compound 0.1581 µM) it was 1.06; with Axitinib + Pemetrexed (first compound 0.5 µM) it was 1.16; in experiment [1] (first compound 1 µM), 0.943; in experiment [1] (first compound 3.162 µM) it was 0.896. Also, the relative viability was 0.629 in experiment [1] (first compound 10 µM); 0.635 in experiment [1] (first compound 31.62 µM); 0.704 in experiment [1] (first compound 100 µM); 0.756 in the experiment with Axitinib + Trametinib (first compound 0.005 µM); 0.626 in the experiment with Axitinib + Trametinib (first compound 0.05 µM); 0.762 with Axitinib + Trametinib (first compound 0.1581 µM). Further, the relative viability with Axitinib + Trametinib (first compound 0.5 µM) amounted to 0.741; with Bemcentinib + Dasatinib (first compound 0.04 µM), 1.04; with Bemcentinib + Dasatinib (first compound 0.1265 µM), 0.589; in the experiment with Bemcentinib + Dasatinib (first compound 0.4 µM) it was 1.19; in the experiment with Bemcentinib + Dasatinib (first compound 1.265 µM) it was 1.01; with Bemcentinib + Dasatinib (first compound 4 µM), 1.08.
As to PC-14, the relative viability with Axitinib + Pemetrexed (first compound 0.005 µM) was 0.135; in the experiment with Axitinib + Pemetrexed (first compound 0.01581 µM), 0.114; with Axitinib + Pemetrexed (first compound 0.05 µM), 0.158; with Axitinib + Pemetrexed (first compound 0.1581 µM) it was 0.137; in the experiment with Axitinib + Pemetrexed (first compound 0.5 µM), 0.142; in experiment [1] (first compound 3.162 µM) it was 0.576. For the same cell line, the relative viability in experiment [1] (first compound 10 µM) came to 0.551; in experiment [1] (first compound 31.62 µM), 0.396; in experiment [1] (first compound 100 µM), 0.291; with Axitinib + Trametinib (first compound 0.005 µM), 0.763; with Axitinib + Trametinib (first compound 0.01581 µM), 0.789; with Axitinib + Trametinib (first compound 0.05 µM), 0.879. The relative viability was determined as 0.759 in the experiment with Axitinib + Trametinib (first compound 0.1581 µM); 1.04 in the experiment with Axitinib + Trametinib (first compound 0.5 µM); 0.236 with Bemcentinib + Dasatinib (first compound 0.04 µM); 0.259 with Bemcentinib + Dasatinib (first compound 0.1265 µM); 0.249 with Bemcentinib + Dasatinib (first compound 0.4 µM); 0.224 in the experiment with Bemcentinib + Dasatinib (first compound 1.265 µM). Also, the relative viability in the experiment with Bemcentinib + Dasatinib (first compound 4 µM) was 0.236.
